Test results taken from PMC11726016 (Cancer Discovery, 2024).

Columns and labels:
[1] = tested on: SDMA and γH2AX in bone marrow, blood and DOHH-2 tumor; experiment: Pharmacodynamics and MOA in vivo assay; conditions: DOHH-2 study, Day 11; LLY-283 30 mg/kg, AM-9747 100 mg/kg PO QD
[2] = tested on: endogenous MTAP WT and MTAP-deleted cancer cell lines; experiment: Viability in a panel of endogenous MTAP WT and MTAP-deleted cancer cells; format: cell-based, human; conditions: 6 days
[3] = tested on: bone marrow progenitors and circulating blood cells; experiment: Bone marrow progenitor populations and circulating blood cells; format: in vivo, mouse; conditions: DOHH-2 study; LLY-283 30 mg/kg, AM-9747 100 mg/kg PO QD
DOHH-2 tumors = experiment: DOHH-2 tumor study, AM-9747 vs LLY-283; format: in vivo, mouse; conditions: LLY-283 30 mg/kg, AM-9747 100 mg/kg PO QD

Nc1ncnc2c1ccn2[C@@H]1O[C@H]([C@H](O)c2ccccc2)[C@@H](O)[C@H]1O [LLY-283]
Blood SDMA decrease [1]: 79%
Bone marrow SDMA decrease [1]: 71%
Tumor SDMA decrease [1]: 21%
relation of MTAP status to sensitivity in the cell panel [2]: MTAP status did not track closely with sensitivity
circulating blood cells (RBC, reticulocytes, platelets) [3]: highly substantial reductions in red blood cells (RBC), reticulocytes, and platelets
megakaryocytic and erythroid progenitors (MEP) population in bone marrow [3]: substantial reduction
tumor-free mice (DOHH-2 tumors): 2/10
